# Target: T1, FGFR3 K650E (Homo sapiens, UniProt P22607, K650E)
# T1 construct: purchased Thermo Fisher Scientific (Life Technologies) SelectScreen
# Experiment: SelectScreen Z'LYTE
# Format: biochemical
# Summary of the method: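 SelectScreen broad panel; activity (Z'LYTE, Adapta) plus binding formats. ATP: Km app for CSF1R Z'LYTE; 10 for CAMK1 Adapta. Readout = % per kinase.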
# T1 sequence (P22607 23-806 K650E): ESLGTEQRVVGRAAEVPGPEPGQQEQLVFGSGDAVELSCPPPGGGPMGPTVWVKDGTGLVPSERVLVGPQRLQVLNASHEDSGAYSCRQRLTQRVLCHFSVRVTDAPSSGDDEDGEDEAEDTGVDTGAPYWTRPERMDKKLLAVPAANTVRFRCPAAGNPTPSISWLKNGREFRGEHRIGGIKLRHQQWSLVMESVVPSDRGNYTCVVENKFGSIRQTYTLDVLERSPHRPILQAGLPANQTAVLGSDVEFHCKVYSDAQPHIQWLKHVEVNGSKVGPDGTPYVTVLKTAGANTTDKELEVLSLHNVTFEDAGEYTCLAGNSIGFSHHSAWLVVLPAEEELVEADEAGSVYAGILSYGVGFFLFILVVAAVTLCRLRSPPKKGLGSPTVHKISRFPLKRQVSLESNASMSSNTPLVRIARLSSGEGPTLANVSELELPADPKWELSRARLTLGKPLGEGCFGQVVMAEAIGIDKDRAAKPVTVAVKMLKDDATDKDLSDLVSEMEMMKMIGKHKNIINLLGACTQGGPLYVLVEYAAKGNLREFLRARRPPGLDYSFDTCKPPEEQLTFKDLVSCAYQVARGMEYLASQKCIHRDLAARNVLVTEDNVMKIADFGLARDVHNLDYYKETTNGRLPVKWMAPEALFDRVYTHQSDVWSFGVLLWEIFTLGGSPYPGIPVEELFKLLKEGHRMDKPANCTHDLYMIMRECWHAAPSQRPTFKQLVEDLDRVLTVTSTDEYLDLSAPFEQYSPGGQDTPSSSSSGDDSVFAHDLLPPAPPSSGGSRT
smiles,measurement,value
CN(C(=O)CN1CCOCC1)c1ccc2sc3c(-c4cccc5c(=O)cc(N6CC7CCC(C6)O7)oc45)cccc3c2c1 [NU5455],inhibition at 1 µM,7.9%

# — PMC6934184, “Selective DNA-PKcs inhibition extends the therapeutic index of localized radiotherapy and chemotherapy” (The Journal of Clinical Investigation, 2019)
